# Results taken from patent publication US20260041620A1, “NOVEL AMINO ACID BASED SALTS, COMPOSITIONS AND METHODS FOR TREATING SKIN AND IMPROVING SKIN REJUVENATION AND LONGEVITY” (Sytheon Ltd, priority 2023, published 2026).
# Columns and labels:
# HDAC6 = target: T1, HDAC6 (Homo sapiens, UniProt Q9UBN7); conditions: reported, abcam; cited from earlier work
# T1 sequence (Q9UBN7 1-1215): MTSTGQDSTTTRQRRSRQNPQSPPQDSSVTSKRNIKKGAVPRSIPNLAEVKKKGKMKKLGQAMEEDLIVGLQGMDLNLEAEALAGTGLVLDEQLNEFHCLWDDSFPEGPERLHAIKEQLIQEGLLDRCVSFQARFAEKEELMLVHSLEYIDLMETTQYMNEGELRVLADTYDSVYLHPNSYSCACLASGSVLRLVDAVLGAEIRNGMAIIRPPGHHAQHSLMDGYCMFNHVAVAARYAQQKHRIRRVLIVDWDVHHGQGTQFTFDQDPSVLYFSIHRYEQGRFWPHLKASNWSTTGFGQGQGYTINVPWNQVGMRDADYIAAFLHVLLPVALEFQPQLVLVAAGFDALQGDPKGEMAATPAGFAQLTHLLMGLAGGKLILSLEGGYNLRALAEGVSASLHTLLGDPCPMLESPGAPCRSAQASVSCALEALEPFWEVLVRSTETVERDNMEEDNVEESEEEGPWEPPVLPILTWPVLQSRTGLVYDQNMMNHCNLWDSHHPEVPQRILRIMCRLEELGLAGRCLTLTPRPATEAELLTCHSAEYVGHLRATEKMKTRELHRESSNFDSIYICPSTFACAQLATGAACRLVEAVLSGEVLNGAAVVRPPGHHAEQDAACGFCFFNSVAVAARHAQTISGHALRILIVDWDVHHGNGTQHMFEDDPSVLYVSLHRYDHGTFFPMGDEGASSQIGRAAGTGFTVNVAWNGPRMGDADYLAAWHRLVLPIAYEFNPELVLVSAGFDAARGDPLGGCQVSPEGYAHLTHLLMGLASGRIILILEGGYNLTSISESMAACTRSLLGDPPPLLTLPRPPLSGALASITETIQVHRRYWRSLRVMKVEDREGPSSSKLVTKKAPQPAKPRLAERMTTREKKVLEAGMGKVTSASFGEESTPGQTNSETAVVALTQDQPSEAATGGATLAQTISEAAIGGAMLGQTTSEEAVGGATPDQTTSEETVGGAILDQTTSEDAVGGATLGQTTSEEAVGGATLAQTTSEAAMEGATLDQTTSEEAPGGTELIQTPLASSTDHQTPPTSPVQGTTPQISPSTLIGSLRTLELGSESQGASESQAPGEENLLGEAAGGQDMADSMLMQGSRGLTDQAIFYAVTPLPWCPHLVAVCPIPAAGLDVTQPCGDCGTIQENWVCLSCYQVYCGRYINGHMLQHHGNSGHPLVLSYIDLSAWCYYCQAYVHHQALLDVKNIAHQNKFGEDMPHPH
# COX-2 = target: T2, COX-2 (Homo sapiens, UniProt P35354); test: biochemical
# T2 sequence (P35354 18-604): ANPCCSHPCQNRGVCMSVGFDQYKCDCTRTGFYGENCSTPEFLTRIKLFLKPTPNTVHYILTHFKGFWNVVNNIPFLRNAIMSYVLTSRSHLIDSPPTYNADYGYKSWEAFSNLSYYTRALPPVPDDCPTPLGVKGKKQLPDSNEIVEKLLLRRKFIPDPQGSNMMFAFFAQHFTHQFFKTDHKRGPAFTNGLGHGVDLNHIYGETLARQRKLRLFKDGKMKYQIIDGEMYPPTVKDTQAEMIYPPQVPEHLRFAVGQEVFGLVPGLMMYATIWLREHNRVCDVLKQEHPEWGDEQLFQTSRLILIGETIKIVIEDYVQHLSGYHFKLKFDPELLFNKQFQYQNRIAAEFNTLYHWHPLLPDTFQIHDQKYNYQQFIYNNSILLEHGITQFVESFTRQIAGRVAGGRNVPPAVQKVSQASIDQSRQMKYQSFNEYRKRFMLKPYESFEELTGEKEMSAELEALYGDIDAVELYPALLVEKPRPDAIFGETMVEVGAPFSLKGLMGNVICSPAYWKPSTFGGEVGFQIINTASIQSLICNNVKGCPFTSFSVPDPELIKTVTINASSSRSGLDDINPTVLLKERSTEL
# Protocol: A 0.1 gram sample of each test material was dissolved in 1 mL propanediol make a stock solution, each of which was subject to 1 to 2 serial dilutions using buffer for use in determining the IC50 Testing and analysis was performed in accordance with the protocol of the COX-2 Kt (Cayman Catalog #701080) (Cayman catalog #62160).
# HDAC10 = target: T3, HDAC10 (Homo sapiens, UniProt Q969S8); conditions: reported, abcam; cited from earlier work
# T3 sequence (Q969S8 1-669): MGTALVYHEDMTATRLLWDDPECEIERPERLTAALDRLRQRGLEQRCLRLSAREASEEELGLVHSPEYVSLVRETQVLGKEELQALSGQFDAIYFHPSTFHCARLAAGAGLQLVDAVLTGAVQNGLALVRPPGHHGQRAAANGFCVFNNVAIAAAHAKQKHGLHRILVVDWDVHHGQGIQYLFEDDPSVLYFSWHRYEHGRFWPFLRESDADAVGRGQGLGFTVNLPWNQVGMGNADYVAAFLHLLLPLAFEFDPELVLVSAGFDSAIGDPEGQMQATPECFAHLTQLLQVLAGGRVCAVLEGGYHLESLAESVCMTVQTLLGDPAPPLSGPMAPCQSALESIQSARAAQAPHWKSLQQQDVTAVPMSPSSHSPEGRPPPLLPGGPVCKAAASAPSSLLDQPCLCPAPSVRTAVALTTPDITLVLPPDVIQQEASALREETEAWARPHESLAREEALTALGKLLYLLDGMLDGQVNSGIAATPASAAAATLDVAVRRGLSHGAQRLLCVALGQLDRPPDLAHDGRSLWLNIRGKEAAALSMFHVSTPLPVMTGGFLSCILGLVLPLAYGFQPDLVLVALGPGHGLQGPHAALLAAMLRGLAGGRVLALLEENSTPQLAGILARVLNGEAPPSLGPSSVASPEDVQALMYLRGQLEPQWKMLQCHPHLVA
smiles,measurement,setting,value
"CCCC(=O)[O-].[Na+] [Sodium butyrate, reference compound]",inhibition of HDAC6,HDAC6,no inhibition
same,IC50,COX-2,2.67 mM
same,inhibition of HDAC10,HDAC10,no inhibition
